Reference: PubChem BioAssay AID2202554 (NIEHS Division of Translational Toxicology (DTT))
Records with an inconclusive call do not appear. Active and inactive are the calls of the source. The rule behind the calls is not given here.

Tested on: S. typhimurium/E. coli reverse mutation, colony counts
Experiment: Bacterial reverse mutation test (aka Ames test) summary data
Procedure, shortened: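 S. typhimurium his⁻ strains (TA97–TA1538) and E. coli WP2 uvrA pKM101 trp⁻, dosed over a range with or without rat, hamster or mouse liver S9. Preincubated 20 min at 37° C (or plate incorporation), plated in agar, incubated usually two days. Revertant colonies counted against negative controls.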

**Q.** C=CCC1(C(C)C#CCC)C(=O)N=C(O)N(C)C1=O (stereo not drawn) was tested. Which outcome did it give?
**A.** The outcome was “inactive; negative”.

**Q.** With CCOC(=O)C1OC1c1ccccc1 (stereo not drawn) as the compound, how does the outcome read?
**A.** Its outcome is “inactive; negative”.

**Q.** Cc1ccc(O)c(N)c1 was tested. Which outcome did it give?
**A.** The outcome was “active; positive”.

**Q.** How did the outcome turn out when O=C(O)CCC(=O)OC[C@@H](NC(=O)C(Cl)Cl)[C@H](O)c1ccc([N+](=O)[O-])cc1 was run?
**A.** The outcome was “inactive; negative”.

**Q.** How did the outcome turn out when CCCCCCCC(=O)OCC(COC(=O)CCCCCCC)OC(=O)CCCCCCC was run?
**A.** Its outcome is “active; positive”.

**Q.** How did the outcome turn out when CN(C)CCCCl was run?
**A.** The outcome was “active; positive”.

**Q.** With O=C(O)c1cccc(Cl)c1 as the compound, how does the outcome read?
**A.** The outcome was “inactive; negative”.

**Q.** For CCCC=O, which outcome is on record?
**A.** Its outcome is “inactive; negative”.

**Q.** How did the outcome turn out when Cc1ncc[nH]1 was run?
**A.** The outcome was “inactive; negative”.

**Q.** How did the outcome turn out when O=C/C=C/O was run?
**A.** The outcome was “inactive; negative”.

**Q.** Which outcome does the source give for ClC=C(Cl)Cl here?
**A.** Its outcome is “inactive; negative”.

**Q.** With C=C(C)C(=O)OCCC as the compound, how does the outcome read?
**A.** The outcome was “inactive; negative”.

**Q.** How did the outcome turn out when ClCc1cccnc1 was run?
**A.** The outcome was “active; positive”.

**Q.** Which outcome does the source give for CCCCCCCCCCCCCCCCCCCC here?
**A.** The outcome was “inactive; negative”.

**Q.** Which outcome does the source give for CC(=O)Nc1ccc(C(=O)O)cc1 here?
**A.** Its outcome is “inactive; negative”.

**Q.** For CCCCC(CC)COC(=O)c1ccccc1C(=O)OCC(CC)CCCC (stereo not drawn), which outcome is on record?
**A.** The outcome was “inactive; negative”.

**Q.** O=[N+]([O-])c1ccc(Cl)cc1Cl was tested. Which outcome did it give?
**A.** The outcome was “active; positive”.

**Q.** For CCOCCO, which outcome is on record?
**A.** Its outcome is “inactive; negative”.

**Q.** How did the outcome turn out when Nc1ccc(Nc2ccccc2)cc1 was run?
**A.** The outcome was “inactive; negative”.

**Q.** How did the outcome turn out when Nc1ccc(S(=O)(=O)O)cc1 was run?
**A.** Its outcome is “inactive; negative”.

**Q.** How did the outcome turn out when C=CC1CO1 (stereo not drawn) was run?
**A.** The outcome was “active; positive”.

**Q.** For CC(C)(C)OCC1CO1 (stereo not drawn), which outcome is on record?
**A.** Its outcome is “active; positive”.

**Q.** Which outcome does the source give for CC(C)CON=O here?
**A.** Its outcome is “active; positive”.

**Q.** Which outcome does the source give for CCOc1ccc(NC(C)=O)cc1N here?
**A.** Its outcome is “active; positive”.

**Q.** With FC(Cl)(Cl)C(F)(Cl)Cl as the compound, how does the outcome read?
**A.** The outcome was “active; weakly positive”.

**Q.** For Cc1ccc2c(C)cccc2c1, which outcome is on record?
**A.** The outcome was “inactive; negative”.

**Q.** How did the outcome turn out when N#CCCC(Br)(C#N)CBr (stereo not drawn) was run?
**A.** The outcome was “inactive; negative”.

**Q.** For CC1OC(C)OC(C)O1 (stereo not drawn), which outcome is on record?
**A.** Its outcome is “active; positive”.

**Q.** Which outcome does the source give for CCCCC(CC)CO (stereo not drawn) here?
**A.** Its outcome is “inactive; negative”.

**Q.** Which outcome does the source give for CC(C)C(C)(C)C(C)(C)C(C)(C)S here?
**A.** Its outcome is “inactive; negative”.

**Q.** Which outcome does the source give for Cc1ccc(N=C=O)cc1N=C=O here?
**A.** The outcome was “active; positive”.

**Q.** With Cc1cccc2c1ccc1ccccc12 as the compound, how does the outcome read?
**A.** Its outcome is “active; positive”.

**Q.** Which outcome does the source give for CC(=O)Nc1cccc(N)c1 here?
**A.** Its outcome is “active; positive”.

**Q.** For CC(C)NCC(O)c1ccc(O)c(O)c1 (stereo not drawn), which outcome is on record?
**A.** The outcome was “active; weakly positive”.

**Q.** For Cc1ccc(Nc2ccc(O)c3c2C(=O)c2ccccc2C3=O)cc1, which outcome is on record?
**A.** Its outcome is “inactive; negative”.

**Q.** With COc1ccc(C(c2ccc(OC)cc2)C(Cl)(Cl)Cl)cc1 as the compound, how does the outcome read?
**A.** Its outcome is “inactive; negative”.

**Q.** How did the outcome turn out when NC1(C(=O)O)CCCC1 was run?
**A.** The outcome was “inactive; negative”.

**Q.** With CSC(C)(C)C=NO as the compound, how does the outcome read?
**A.** Its outcome is “inactive; negative”.

**Q.** Which outcome does the source give for C[N+](C)(C)CCO here?
**A.** Its outcome is “inactive; negative”.

**Q.** COc1cc([C@H]2Oc3cc([C@H]4Oc5cc(O)cc(O)c5C(=O)[C@@H]4O)ccc3O[C@@H]2CO)ccc1O was tested. Which outcome did it give?
**A.** Its outcome is “inactive; negative”.

**Q.** With Nc1c(N=Nc2ccc([N+](=O)[O-])cc2)c(S(=O)(=O)O)cc2cc(S(=O)(=O)O)c(N=Nc3ccccc3)c(O)c12 as the compound, how does the outcome read?
**A.** The outcome was “active; positive”.

**Q.** Nc1cc(Cl)c(N)c(Cl)c1 was tested. Which outcome did it give?
**A.** Its outcome is “active; positive”.

**Q.** With CCOc1cc(C=O)ccc1O as the compound, how does the outcome read?
**A.** The outcome was “inactive; negative”.

**Q.** With O=C(OOC(=O)c1ccccc1)c1ccccc1 as the compound, how does the outcome read?
**A.** Its outcome is “inactive; negative”.

**Q.** C=CC(=O)NCO was tested. Which outcome did it give?
**A.** Its outcome is “inactive; negative”.

**Q.** With NC(=O)c1ccccc1C(N)=O as the compound, how does the outcome read?
**A.** The outcome was “inactive; negative”.

**Q.** O=C(O)C1C(C(=O)O)C2(Cl)C(Cl)=C(Cl)C1(Cl)C2(Cl)Cl (stereo not drawn) was tested. Which outcome did it give?
**A.** Its outcome is “inactive; negative”.

**Q.** For COC(=O)C1=C(C)NC(C)=C(C(=O)OC)C1c1ccccc1[N+](=O)[O-], which outcome is on record?
**A.** The outcome was “inactive; negative”.

**Q.** For Cc1ccc([N+](=O)[O-])c(N)c1, which outcome is on record?
**A.** The outcome was “inactive; negative”.

**Q.** Which outcome does the source give for OCC(Br)=C(Br)CO here?
**A.** Its outcome is “active; positive”.

**Q.** For Sc1ccccc1, which outcome is on record?
**A.** Its outcome is “inactive; negative”.

**Q.** With Cc1c(C)c2c(c(C)c1OC(=O)CCC(=O)O)CC[C@@](C)(CCC[C@H](C)CCC[C@H](C)CCCC(C)C)O2 as the compound, how does the outcome read?
**A.** Its outcome is “inactive; negative”.

**Q.** For CNNCc1ccc(C(=O)NC(C)C)cc1, which outcome is on record?
**A.** Its outcome is “inactive; negative”.
